Experimental data published in patent EP0541497A1, “Prolineamide derivatives as enhancers of learning processes and memory and pharmaceutical compositions containing same” (Sigma-Tau Industrie Farmaceutiche Riunite S.p.A., priority 1991, dated 1993).

Key:
[1] = relative to oxiracetan; cited from earlier work
[2] = system: ECS-induced amnesia; test: Passive avoidance test, amnesia induced by electroconvulsive shock (ECS); format: in vivo, Male CDI mice; conditions: percentage of amnesia reversal, given 30 minutes before training, retention 24 hours later
Description: In order to assess the antiamnesic activity the passive avoidance test in mince was used.
Male CDI mice weighing 25-26 g (charles River, Germany) fed on a normal diet, were used.
The compounds were administered i.p.; doses equimolar to 9.0 and 0.9 mg piracetam kg ⁻¹ were used.
The water-soluble compounds were dissolved in saline; the insoluble ones were dissolved in dimethylsulfoxide and then diluted in 2% Tween 80, ratio 1:4.
The apparatus for passive avoidance conditioning was a black plastic chamber (42 x 42 cm, height 40 cm), provided with a floor constructed of metal that could be electrified. From the front wall extended a white runway, 30 cm long and 10 cm wide provided with side walls 12 cm high, which led into the box through a guillotine door.
The animals, 30 minutes following treatment, were placed on the runways. After one minute of adaptation, the door was raised and the time employed by the animal to enter the darkened with all four feet, was recorded.
Upon entry, the guillotine door was lowered and 3 seconds thereafter the rods were electrified, 0.24 mA for 2 seconds. The mouse was then removed from the chamber and immediately administered and electroshock delivered through spring clips attached to the ears (square wave, intensity 20 mA, amplitude 0.6 msec, duration 0.5 s, frequency 50 Hz). Immediately thereafter the animal was placed in the housing cage. Retention was assessed 24 hours later by placing the animal on the runways and again evaluating the latency in entering the chamber, using an end-point of 300 s (crf. Brammer, loc. cit.).
In each experiment, two groups of animals in addition to the treated ones were used, that were defined as follows: • (1) ceiling control animals (treated with placebo and not subjected to ECS amnesia treatment) to ensure that these animals not treated with the amnesia agent remembered the task; • (2) base-line control animals (treated with placebo and subjected to ECS amnesia treatment) to ensure that ECS produced amnesia in the animals not treated with the compounds of the present invention.
The sum ΣAij encompasses all the possible pairs obtained by combining each term Xi with each term Xj.

[3] = system: male CDI Mice; test: Behavioural profile (Irwin test); format: in vivo; conditions: oral, the other doses (equimolar to 23, 5.4 and 1.4 mg piracetam/10mL/kg), monitored for 6 hours
Description: (§1) The behavioural profile was assessed in male CDI Mice (Charles River, Italy) weighing 22-24 g, using the Irwin test (IRWIN S., Drug screening and evaluation procedures; 136, 123-128, 1962). The animals had been caged under normal conditions and kept fasting for the last 18 hours.
(§2) Following administration of the compounds, the behaviour of the animals was monitored for 6 hours. The compounds were suspended in 10% arabic gum and orally administered at doses equimolar to 90, 23, 5.4 and 1.4 mg piracetam/10mL/kg of body weight.
(§3) The animals of the control groups were administered 10% arabic gum (10mL/kg, orally).

[4] = Behavioural profile (Irwin test); format: in vivo, male CDI Mice; conditions: mouse, in vivo; oral, 90 mg/kg (equimolar to piracetam), monitored for 6 hours; read-out: death rate
Description: as §1, §2, §3

[5] = 0.9 mg/kg (i.p., dose equimolar to 0.9 mg piracetam kg-1)
[6] = 9mg/kg (i.p., dose equimolar to 9.0 mg piracetam kg-1)

SMILES	doses for nootropic activity, times as high as those of oxiracetan [1]	%AR [2, 5] [%]	%AR [2, 6] [%]	toxicity [3]	mortality at 6 h [4] [%]
O=C1CC[C@@H](C(=O)O)N1 [L-pyroglutamic acid]	5-10 times				
NC(=O)CN1CCCC1=O [Piracetam, reference compound]		0	0		
CC(C)N(CCNC(=O)[C@@H]1CCCN1C(=O)OCc1ccccc1)C(C)C [ST 691, (S)-1-[N-(BENZYLOXYCARBONYL)-PROLYL]-2,2(DIISOPROPYL)-ETHYLENDIAMINE]		52	0	non toxic	100
O=C(NCCO)[C@@H]1CCCN1C(=O)OCc1ccccc1 [ST 704, (S)-N-[N-(BENZYLOXYCARBONYL)-PROLYL]-ETHANOLAMINE]		0	46		
O=C([C@@H]1CCCN1C(=O)OCc1ccccc1)N1CCN(c2cccc(Cl)c2)CC1 [ST 792, (S)-1-[N-(BENZYLOXYCARBONYL)-PROLYL]-4-(3-CHLOROPHENYL)-PIPERAZINE]		26	0		
CC(C)N(CCNC(=O)[C@@H]1CCCN1C=O)C(C)C [ST 849, (S)-1-[N-(FORMYL)-PROLYL]-2.2(DIISOPROPYL)-ETHYLENDIAMINE]		3	59		
